Test results from US11649255B2, “Indazoles as hematopoietic progenitor kinase 1 (HPK1) inhibitors and methods using same” (1st Biotherapeutics, Inc., priority 2020, dated 2023).

Target: recombinant human HPK1 (Homo sapiens (Human), UniProt Q92918)
Assay: HPK1 kinase assay (ADP-Glo)
Format: biochemical
Conditions: 25 μM ATP, MBP substrate
Outline: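 Activity was read as ADP formed, detected by ADP-Glo luminescence after the reaction of 5 ng recombinant human HPK1 with MBP and ATP (stocks 0.5 μg/μl and 25 μM) for 40 min at 30 °C. Buffer was Tris pH 7.5 with MgCl2, BSA and DTT, with compound in 0.5% DMSO. IC50 came from inhibition curves.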

Sequence of recombinant human HPK1 (Q92918 whole entry): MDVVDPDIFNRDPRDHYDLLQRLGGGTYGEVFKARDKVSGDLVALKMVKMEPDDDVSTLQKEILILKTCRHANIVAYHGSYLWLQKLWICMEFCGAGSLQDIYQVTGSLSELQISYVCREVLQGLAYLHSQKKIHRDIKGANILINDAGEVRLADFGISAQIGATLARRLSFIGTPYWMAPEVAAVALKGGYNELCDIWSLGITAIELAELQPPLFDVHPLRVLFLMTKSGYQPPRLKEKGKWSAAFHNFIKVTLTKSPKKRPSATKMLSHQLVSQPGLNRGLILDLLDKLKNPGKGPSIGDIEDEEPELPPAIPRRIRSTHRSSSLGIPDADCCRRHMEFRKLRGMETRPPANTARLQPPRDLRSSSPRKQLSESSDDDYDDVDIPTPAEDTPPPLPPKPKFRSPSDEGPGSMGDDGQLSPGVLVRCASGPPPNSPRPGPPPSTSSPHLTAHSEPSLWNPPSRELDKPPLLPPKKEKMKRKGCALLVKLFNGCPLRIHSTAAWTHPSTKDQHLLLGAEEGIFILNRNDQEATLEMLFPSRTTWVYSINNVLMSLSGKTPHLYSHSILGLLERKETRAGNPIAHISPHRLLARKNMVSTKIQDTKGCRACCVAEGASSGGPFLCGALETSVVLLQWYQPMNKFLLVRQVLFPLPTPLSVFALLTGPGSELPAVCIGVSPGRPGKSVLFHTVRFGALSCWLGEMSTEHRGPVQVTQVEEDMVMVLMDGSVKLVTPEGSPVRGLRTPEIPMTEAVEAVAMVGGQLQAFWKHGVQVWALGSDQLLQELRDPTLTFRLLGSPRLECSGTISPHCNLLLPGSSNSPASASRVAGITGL

Compared with `COc1cc(C)c(-c2ccn3nc(NC(=O)[C@@H]4C[C@@H]4F)cc3c2)c2cn[nH]c12` [Example 506, (1S,2S)-2-fluoro-N-(5-(7-methoxy-5-methyl-1H-indazol-4-yl)pyrazolo[1,5-a]pyridin-2-yl)cyclopropane-1-carboxamide], `CN(C)c1ccc(-c2ccn3nc(NC(=O)[C@@H]4C[C@@H]4F)cc3c2)c2cn[nH]c12` [Example 595, (1S,2S)-N-(5-(7-(dimethylamino)-1H-indazol-4-yl)pyrazolo[1,5-a]pyridin-2-yl)-2-fluorocyclopropane-1-carboxamide] is higher in IC50: less than 100 nM for the first, 101 to 500 nM for the second. The first is the more potent here.

`C#Cc1ccc2[nH]ncc2c1-c1ccc2nc(NC(=O)[C@@H]3C[C@@H]3F)sc2c1` [Example 39, (1S,2S)-N-(6-(5-ethynyl-1H-indazol-4-yl)benzo[d]thiazol-2-yl)-2-fluorocyclopropane-1-carboxamide] and `O=C(Nc1nc2ccc(-c3c(CF)ccc4[nH]ncc34)cc2s1)[C@@H]1C[C@@H]1F` [Example 36, (1S,2S)-2-fluoro-N-(6-(5-(fluoromethyl)-1H-indazol-4-yl)benzo[d]thiazol-2-yl)cyclopropane-1-carboxamide] fall in the same range of IC50: 101 to 500 nM for the first, 101 to 500 nM for the second.

`CN(C)C1CCC(Nc2c(F)c(Cl)c(-c3ccn4nc(NC(=O)[C@@H]5C[C@@H]5F)cc4c3)c3cn[nH]c23)CC1` (stereo partly drawn) [Example 512, (1S,2S)-N-(5-(5-chloro-7-((4-(dimethylamino)cyclohexyl)amino)-6-fluoro-1H-indazol-4-yl)pyrazolo[1,5-a]pyridin-2-yl)-2-fluorocyclopropane-1-carboxamide] and `O=C(Nc1cc2cc(-c3c(Cl)c(F)c(N4CCOCC4)c4[nH]ncc34)ccn2n1)[C@@H]1C[C@@H]1F` [Example 498, (1S,2S)-N-(5-(5-chloro-6-fluoro-7-morpholino-1H-indazol-4-yl)pyrazolo[1,5-a]pyridin-2-yl)-2-fluorocyclopropane-1-carboxamide] cannot be ordered by IC50: less than 100 nM for the first, less than 100 nM for the second.

First: Nc1cc2[nH]ncc2c(-c2ccc3nc(NC(=O)[C@@H]4C[C@@H]4F)cn3c2)c1Cl [Example 284, (1S,2S)-N-(6-(6-amino-5-chloro-1H-indazol-4-yl)imidazo[1,2-a]pyridin-2-yl)-2-fluorocyclopropane-1-carboxamide]
Second: O=C(Nc1cn2cc(-c3c(Cl)c(F)c(Cl)c4[nH]ncc34)ccc2n1)[C@@H]1C[C@@H]1F [Example 256, (1S,2S)-N-(6-(5,7-dichloro-6-fluoro-1H-indazol-4-yl)imidazo[1,2-a]pyridin-2-yl)-2-fluorocyclopropane-1-carboxamide]
The IC50 of the first is higher: 101 to 500 nM for the first, less than 100 nM for the second.

`N#C/C=C/c1c(F)c(Cl)c(-c2ccn3nc(NC(=O)[C@@H]4C[C@@H]4F)cc3c2)c2cn[nH]c12` [Example 633, (1S,2S)-N-(5-(5-chloro-7-((E)-2-cyanovinyl)-6-fluoro-1H-indazol-4-yl)pyrazolo[1,5-a]pyridin-2-yl)-2-fluorocyclopropane-1-carboxamide] and `CCC(=O)NC(C)c1c(F)c(Cl)c(-c2ccn3nc(NC(=O)[C@@H]4C[C@@H]4F)cc3c2)c2cn[nH]c12` (stereo partly drawn) [Example 660, (1S,2S)-N-(5-(5-chloro-6-fluoro-7-(1-propionamidoethyl)-1H-indazol-4-yl)pyrazolo[1,5-a]pyridin-2-yl)-2-fluorocyclopropane-1-carboxamide] cannot be ordered by IC50: less than 100 nM for the first, less than 100 nM for the second.

Going from `CN(C)C(=O)CSc1c(F)c(Cl)c(-c2ccc3nc(NC(=O)[C@@H]4C[C@@H]4F)sc3c2)c2cn[nH]c12` [Example 99, (1S,2S)-N-(6-(5-chloro-7-((2-(dimethylamino)-2-oxoethyl)thio)-6-fluoro-1H-indazol-4-yl)benzo[d]thiazol-2-yl)-2-fluorocyclopropane-1-carboxamide] to `O=C(O)c1c(F)c(Cl)c(-c2ccc3nc(NC(=O)[C@@H]4C[C@@H]4F)sc3c2)c2cn[nH]c12` [Example 121, 5-chloro-6-fluoro-4-(2-((1S,2S)-2-fluorocyclopropane-1-carboxamido)benzo[d]thiazol-6-yl)-1H-indazole-7-carboxylic acid], the IC50 rises from less than 100 nM to greater than 1000 nM. The first is the more potent here.

`CCc1c(F)c(C(F)(F)F)c2[nH]ncc2c1-c1ccc2nc(NC(=O)[C@@H]3C[C@@H]3F)cn2c1` [Example 339, (1S,2S)-N-(6-(5-ethyl-6-fluoro-7-(trifluoromethyl)-1H-indazol-4-yl)imidazo[1,2-a]pyridin-2-yl)-2-fluorocyclopropane-1-carboxamide] and `CCOc1c(F)c(CC)c(-c2ccc3nc(NC(=O)[C@@H]4C[C@@H]4F)cn3c2)c2cn[nH]c12` [Example 318, (1S,2S)-N-(6-(7-ethoxy-5-ethyl-6-fluoro-1H-indazol-4-yl)imidazo[1,2-a]pyridin-2-yl)-2-fluorocyclopropane-1-carboxamide] cannot be ordered by IC50: less than 100 nM for the first, less than 100 nM for the second.

Going from `O=C(Nc1nc2ccc(-c3cc(F)c(OC(F)(F)F)c4[nH]ncc34)cc2s1)[C@@H]1C[C@@H]1F` [Example 140, (1S,2S)-2-fluoro-N-(6-(6-fluoro-7-(trifluoromethoxy)-1H-indazol-4-yl)benzo[d]thiazol-2-yl)cyclopropane-1-carboxamide] to `O=C(Nc1cc2cc(-c3cc(F)c(OC(F)(F)F)c4[nH]ncc34)ccn2n1)[C@@H]1C[C@@H]1F` [Example 587, (1S,2S)-2-fluoro-N-(5-(6-fluoro-7-(trifluoromethoxy)-1H-indazol-4-yl)pyrazolo[1,5-a]pyridin-2-yl)cyclopropane-1-carboxamide], the IC50 falls from greater than 1000 nM to less than 100 nM. The second is the more potent here.

First: Cc1c(F)c(Cl)c(-c2ccc3nc(NC(=O)[C@@H]4C[C@@H]4F)sc3n2)c2cn[nH]c12 [Example 211, (1S,2S)-N-(5-(5-chloro-6-fluoro-7-methyl-1H-indazol-4-yl)thiazolo[5,4-b]pyridin-2-yl)-2-fluorocyclopropane-1-carboxamide]
Second: Cc1c(F)c([S+](C)[O-])c2[nH]ncc2c1-c1ccc2nc(NC(=O)[C@@H]3C[C@@H]3F)sc2n1 (stereo partly drawn) [Example 177, (1S,2S)-2-fluoro-N-(5-(6-fluoro-5-methyl-7-(methylsulfinyl)-1H-indazol-4-yl)thiazolo[5,4-b]pyridin-2-yl)cyclopropane-1-carboxamide]
The IC50 of the first is lower: less than 100 nM for the first, 101 to 500 nM for the second.

`Cc1ccc2[nH]ncc2c1-c1ccc2nc(NC(=O)C3CC(F)C3)sc2c1` [Example 6, (1S,3S)-3-fluoro-N-(6-(5-methyl-1H-indazol-4-yl)benzo[d]thiazol-2-yl)cyclobutane-1-carboxamide] and `CS(=O)(=O)c1c(F)c(Cl)c(-c2ccc3nc(NC(=O)[C@@H]4C[C@@H]4F)sc3c2)c2cn[nH]c12` [Example 119, (1S,2S)-N-(6-(5-chloro-6-fluoro-7-(methylsulfonyl)-1H-indazol-4-yl)benzo[d]thiazol-2-yl)-2-fluorocyclopropane-1-carboxamide] fall in the same range of IC50: 101 to 500 nM for the first, 101 to 500 nM for the second.

First: C[S+]([O-])c1c(F)cc2[nH]ncc2c1-c1cc2sc(NC(=O)[C@@H]3C[C@@H]3F)nc2cn1 (stereo partly drawn) [Example 220, (1S,2S)-2-fluoro-N-(6-(6-fluoro-5-(methylsulfinyl)-1H-indazol-4-yl)thiazolo[4,5-c]pyridin-2-yl)cyclopropane-1-carboxamide]
Second: O=C(O)NCC1CN(c2c(F)c(Cl)c(-c3ccc4nc(NC(=O)[C@@H]5C[C@@H]5F)sc4c3)c3cn[nH]c23)C1 [Example 90, ((1-(5-chloro-6-fluoro-4-(2-((1S,2S)-2-fluorocyclopropane-1-carboxamido)benzo[d]thiazol-6-yl)-1H-indazol-7-yl)azetidin-3-yl)methyl)carbamic acid]
The IC50 of the first is higher: greater than 1000 nM for the first, less than 100 nM for the second.

First: C=CC(=O)Nc1cc2[nH]ncc2c(-c2ccc3nc(NC(=O)[C@@H]4C[C@@H]4F)cn3c2)c1C [Example 289, (1S,2S)-N-(6-(6-acrylamido-5-methyl-1H-indazol-4-yl)imidazo[1,2-a]pyridin-2-yl)-2-fluorocyclopropane-1-carboxamide]
Second: Cc1c(F)c(OC(F)(F)F)c2[nH]ncc2c1-c1ccc2nc(NC(=O)[C@@H]3C[C@@H]3F)cn2c1 [Example 345, (1S,2S)-2-fluoro-N-(6-(6-fluoro-5-methyl-7-(trifluoromethoxy)-1H-indazol-4-yl)imidazo[1,2-a]pyridin-2-yl)cyclopropane-1-carboxamide]
The IC50 of the first is higher: greater than 1000 nM for the first, less than 100 nM for the second. The second is the more potent here.

`CCc1ccc2[nH]ncc2c1-c1ccn2nc(NC(=O)[C@@H]3C[C@@H]3F)cc2c1` [Example 452, (1S,2S)-N-(5-(5-ethyl-1H-indazol-4-yl)pyrazolo[1,5-a]pyridin-2-yl)-2-fluorocyclopropane-1-carboxamide] and `CN(CCc1ccncc1)c1c(F)c(Cl)c(-c2ccn3nc(NC(=O)[C@@H]4C[C@@H]4F)cc3c2)c2cn[nH]c12` [Example 616, (1S,2S)-N-(5-(5-chloro-6-fluoro-7-(methyl(2-(pyridin-4-yl)ethyl)amino)-1H-indazol-4-yl)pyrazolo[1,5-a]pyridin-2-yl)-2-fluorocyclopropane-1-carboxamide] cannot be ordered by IC50: less than 100 nM for the first, less than 100 nM for the second.

First: CO[C@H](C)[C@@H](OC)c1c(F)c(Cl)c(-c2ccn3nc(NC(=O)[C@@H]4C[C@@H]4F)cc3c2)c2cn[nH]c12 [Example 666, (1S,2S)-N-(5-(5-chloro-7-((1S,2R)-1,2-dimethoxypropyl)-6-fluoro-1H-indazol-4-yl)pyrazolo[1,5-a]pyridin-2-yl)-2-fluorocyclopropane-1-carboxamide]
Second: CN(C)C(=O)c1ccn(-c2c(F)c(Cl)c(-c3ccn4nc(NC(=O)[C@@H]5C[C@@H]5F)cc4c3)c3cn[nH]c23)c1 [Example 649, 1-(5-chloro-6-fluoro-4-(2-((1S,2S)-2-fluorocyclopropane-1-carboxamido)pyrazolo[1,5-a]pyridin-5-yl)-1H-indazol-7-yl)-N,N-dimethyl-1H-pyrrole-3-carboxamide]
The IC50 of the first is higher: 101 to 500 nM for the first, less than 100 nM for the second.

In the case of `CC(NC(=O)C(F)(F)F)c1c(F)c(Cl)c(-c2ccc3nc(NC(=O)[C@@H]4C[C@@H]4F)cn3c2)c2cn[nH]c12` (stereo partly drawn) [Example 428, (1S,2S)-N-(6-(5-chloro-6-fluoro-7-(1-(2,2,2-trifluoroacetamido)ethyl)-1H-indazol-4-yl)imidazo[1,2-a]pyridin-2-yl)-2-fluorocyclopropane-1-carboxamide], the IC50 is reported as less than 100 nM.
